Measurements as given in ChEMBL document CHEMBL1817580, “Chemical modifications of resveratrol for improved protein kinase C alpha activity” (Bioorg Med Chem, 2011).
Active and inactive are the calls of the source. No cut-off for these calls is given here.

Assays:
[1] = target: Protein kinase C alpha type (Homo sapiens) (UniProt P17252); assay: Inhibition of membrane translocation of PKCalpha expressed in HEK293 cells assessed as increase of protein found in membrane fraction at 100 uM after 2 hrs by Western blotting relative to resveratrol; assay type: cell-based; parameters: scale not given: the % may be the effect or the level left
[2] = target: Protein kinase C alpha type (Homo sapiens) (UniProt P17252); assay: Binding affinity to recombinant C1B domain of PKCalpha expressed in Escherichia coli BL21 (DE3) after 45 mins by fluorescence quenching assay
HEK293 [3] = assay: Cytotoxicity against HEK293 cells assessed as increase in cell viability at 100 uM after 48 hrs by MTT assay relative to resveratrol; assay type: cell-based; conditions: human, hek293, 48 h
[4] = target: Protein kinase C alpha type (Homo sapiens) (UniProt P17252); assay: Inhibition of TPA-induced membrane translocation of PKCalpha expressed in HEK293 cells assessed as protein found in membrane fraction at 100 uM after 2 hrs by Western blotting relative to TPA; assay type: cell-based; parameters: scale not given: the % may be the effect or the level left
HEK293 [5] = assay: Cytotoxicity against HEK293 cells assessed as decrease in cell viability at 100 uM after 48 hrs by MTT assay relative to control; assay type: cell-based; conditions: human, hek293, 48 h
[6] = target: Protein kinase C alpha type (Homo sapiens) (UniProt P17252); assay: Inhibition of membrane translocation of PKCalpha expressed in HEK293 cells at 100 uM after 2 hrs by Western blotting; assay type: cell-based

Row | SMILES | Activity [1] [%] | Activity [2] | Activity (HEK293 [3]) [%] | Activity [4] [%] | fold change (FC) (HEK293 [3]) | Activity (HEK293 [5]) [%] | inhibition [6] [%]
1 | Oc1cc(/C=C/c2cc(O)c(O)c(O)c2)cc(O)c1O | 20 | Active | 25 | 29.8 | – | – | –
2 | CCCCCCCCCCCCCCCCOc1cc(/C=C/c2ccc(O)cc2)cc(OCCCCCCCCCCCCCCCC)c1 | 20 | – | – | 78.8 | 2 | – | –
3 | COc1ccc(/C=C/c2cc(OC)cc(OC)c2)cc1 [TRISMETHOXYRESVERATROL] | 20 | Active | – | 31.9 | 4 | – | –
4 | CCCCCCCCCCCCCCCCOc1c(O)cc(/C=C/c2cc(O)c(O)c(O)c2)cc1O | 20 | – | 25 | 68.3 | – | – | –
5 | COc1cc(/C=C/c2cc(OC)c(OC)c(OC)c2)cc(OC)c1OC | 20 | – | – | 44.8 | 2 | – | –
6 | CCCCCCCCOc1cc(/C=C/c2ccc(O)cc2)cc(OCCCCCCCC)c1 | 20 | – | – | 65.7 | 4 | – | –
7 | CCCCCCCCOc1ccc(/C=C/c2cc(O)cc(O)c2)cc1 | 20 | – | – | 85.2 | 4 | – | –
8 | Oc1ccc(/C=C/c2cc(O)cc(O)c2)cc1 [RESVERATROL] | – | Active | – | 60 | – | 20 | 5
9 | CCCCCCCCCCCCCCCCOc1ccc(/C=C/c2cc(O)cc(O)c2)cc1 | 20 | Active | – | 79.8 | 2 | – | –
